Laboratory results as given in ChEMBL document CHEMBL1153382 (J Med Chem, 2009).
Activity calls are given as the source filed them. The calls are words filed in the database; no cut-off is given here.

How the values were obtained:
[1] = molecular target: T1, 5-hydroxytryptamine receptor 2A (Homo sapiens, UniProt P28223); assay: Agonist activity at human 5HT2A receptor expressed in HEK293 cells assessed as calcium flux by FLIPR assay; format: functional, cell-based
[2] = molecular target: T2, 5-hydroxytryptamine receptor 2C (Homo sapiens) (UniProt P28335); assay: Agonist activity at human 5HT2C receptor expressed in HEK293 cells at 10 uM assessed as calcium flux by FLIPR assay relative to serotonin; format: functional, cell-based
T2 sequence (whole entry): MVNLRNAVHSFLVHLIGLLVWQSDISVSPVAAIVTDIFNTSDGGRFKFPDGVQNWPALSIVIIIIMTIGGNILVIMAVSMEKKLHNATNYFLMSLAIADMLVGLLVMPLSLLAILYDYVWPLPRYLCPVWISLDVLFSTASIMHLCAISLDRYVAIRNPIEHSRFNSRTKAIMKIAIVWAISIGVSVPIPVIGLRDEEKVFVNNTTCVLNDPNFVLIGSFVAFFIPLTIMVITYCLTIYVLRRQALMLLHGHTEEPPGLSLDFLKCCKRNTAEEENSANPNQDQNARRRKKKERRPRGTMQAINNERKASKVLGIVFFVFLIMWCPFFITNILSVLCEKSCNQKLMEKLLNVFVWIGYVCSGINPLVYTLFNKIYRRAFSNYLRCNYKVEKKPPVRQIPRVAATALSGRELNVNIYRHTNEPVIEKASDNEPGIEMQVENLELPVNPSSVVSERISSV

Homo sapiens = species on record: Homo sapiens; assay: Selectivity ratio of EC50 for human 5HT2B receptor to EC50 for human 5HT2C receptor
[3] = molecular target: T3, 5-hydroxytryptamine receptor 2B (Homo sapiens, UniProt P41595); assay: Agonist activity at human 5HT2B receptor expressed in HEK293 cells at 10 uM assessed as calcium flux by FLIPR assay relative to serotonin; format: functional, cell-based
[4] = molecular target: T1, 5-hydroxytryptamine receptor 2A; assay: Agonist activity at human 5HT2A receptor expressed in HEK293 cells at 10 uM assessed as calcium flux by FLIPR assay relative to serotonin; format: functional, cell-based
[5] = molecular target: T4, 5-hydroxytryptamine receptor 2C (Homo sapiens, UniProt P28335); assay: Agonist activity at human 5HT2C receptor expressed in HEK293 cells assessed as calcium flux by FLIPR assay; format: functional, cell-based
T4 sequence (P28335 whole entry): T2 sequence (whole entry)

[6] = molecular target: T3, 5-hydroxytryptamine receptor 2B; assay: Agonist activity at human 5HT2B receptor expressed in HEK293 cells assessed as calcium flux by FLIPR assay; format: functional, cell-based

T3 sequence (P41595 whole entry): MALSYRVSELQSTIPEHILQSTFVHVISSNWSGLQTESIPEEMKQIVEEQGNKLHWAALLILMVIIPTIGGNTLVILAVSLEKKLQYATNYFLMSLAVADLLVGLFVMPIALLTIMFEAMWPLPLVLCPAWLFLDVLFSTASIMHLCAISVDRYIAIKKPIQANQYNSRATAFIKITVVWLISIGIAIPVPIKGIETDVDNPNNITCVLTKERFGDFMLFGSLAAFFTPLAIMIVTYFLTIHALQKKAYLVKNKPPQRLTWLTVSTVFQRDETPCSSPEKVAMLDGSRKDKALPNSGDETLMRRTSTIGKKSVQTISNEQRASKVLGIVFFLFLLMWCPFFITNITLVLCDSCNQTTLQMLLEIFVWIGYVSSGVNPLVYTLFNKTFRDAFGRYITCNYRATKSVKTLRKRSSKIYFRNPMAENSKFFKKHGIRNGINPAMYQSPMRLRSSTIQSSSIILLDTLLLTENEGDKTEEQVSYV
T1 sequence (P28223 whole entry): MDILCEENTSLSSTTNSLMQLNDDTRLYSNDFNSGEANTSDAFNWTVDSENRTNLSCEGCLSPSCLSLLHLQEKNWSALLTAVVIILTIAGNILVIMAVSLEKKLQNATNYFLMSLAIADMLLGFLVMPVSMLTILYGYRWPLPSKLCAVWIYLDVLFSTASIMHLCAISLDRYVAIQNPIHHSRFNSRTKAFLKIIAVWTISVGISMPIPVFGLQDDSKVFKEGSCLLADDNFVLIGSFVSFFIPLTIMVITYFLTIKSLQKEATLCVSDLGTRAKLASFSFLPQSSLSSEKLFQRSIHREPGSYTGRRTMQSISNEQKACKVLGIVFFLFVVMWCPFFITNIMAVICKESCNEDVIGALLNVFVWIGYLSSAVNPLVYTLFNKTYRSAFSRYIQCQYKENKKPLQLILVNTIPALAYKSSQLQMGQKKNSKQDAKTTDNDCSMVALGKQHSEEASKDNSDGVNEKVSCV

SMILES | EC50 [1] | Emax [2] | Ratio EC50 (Homo sapiens) | Emax [3] | Emax [4] | EC50 [5] | EC50 [6] | Activity [1] | Activity [6]
C#Cc1cccc([C@H]2C[C@@H]2CN)c1 (relative stereo) | > 10 µM | 91% | 1.4 | 84% | 42% | 0.136 µM | 0.185 µM |  | 
NC[C@H]1C[C@@H]1c1ccccc1-c1ccc(F)cc1 (relative stereo) |  | 74% | > 3 | 43% | < 12% | 0.301 µM | > 1 µM | inactive | 
NC[C@H]1C[C@@H]1c1cccc(-c2ccc(Cl)cc2)c1 (relative stereo) |  | 87% |  | < 12% | < 12% | 1.58 µM |  | inactive | inactive
NC[C@H]1C[C@@H]1c1ccc(C#CCCCCO)cc1 (relative stereo) |  | 24% |  | < 12% | < 12% | > 10 µM |  | inactive | inactive
NC[C@H]1C[C@@H]1c1cccc(-c2ccc(F)cc2)c1 (relative stereo) |  | 79% |  | < 12% | < 12% | 0.695 µM |  | inactive | inactive
NC[C@H]1C[C@@H]1c1cccc(-c2ccc(C(F)(F)F)cc2)c1 (relative stereo) |  | 61% |  | < 12% | < 12% | > 1 µM |  | inactive | inactive
NC[C@H]1C[C@@H]1c1ccc(-c2ccc(F)cc2)cc1 (relative stereo) |  | 45% |  | 10% | < 12% | > 1 µM | > 1 µM | inactive | 
NC[C@H]1C[C@@H]1c1cccc(NC(=O)c2ccccc2)c1 (relative stereo) |  | 26% |  | < 12% | < 12% | > 1 µM |  | inactive | inactive
CC(=O)Nc1ccccc1[C@H]1C[C@@H]1CN (relative stereo) |  | 30% |  | < 12% | < 12% | > 1 µM |  | inactive | inactive
NC[C@H]1C[C@@H]1c1cccc(-c2cc3ccccc3o2)c1 (relative stereo) |  | 39% |  | < 12% | < 12% | > 1 µM |  | inactive | inactive
N#Cc1ccc(-c2cccc([C@H]3C[C@@H]3CN)c2)cc1 (relative stereo) |  | 41% |  | < 12% | < 12% | > 1 µM |  | inactive | inactive
NC[C@H]1C[C@@H]1c1ccccc1-c1cc2ccccc2o1 (relative stereo) |  | 66% | > 1 | 10% | < 12% | 1.96 µM | > 1 µM | inactive | 
CC(C)(O)C#Cc1cccc([C@H]2C[C@@H]2CN)c1 (relative stereo) |  | 62% |  | < 12% | < 12% | > 5 µM |  | inactive | inactive
CC(=O)Nc1cccc([C@H]2C[C@@H]2CN)c1 (relative stereo) |  | 39% |  | < 12% | < 12% | > 1 µM |  | inactive | inactive
N[C@@H]1C[C@H]1c1ccccc1.N[C@H]1C[C@@H]1c1ccccc1 (racemic) [TRANYLCYPROMINE] |  | 109% |  | 29% | < 12% | 2.7 µM | > 5 µM | inactive | 
